Data: patent US12433903B2 (priority 2021, dated 2025)

Target: T1, rUGT1A9 (Homo sapiens, UniProt O60656)
T1 sequence (O60656 26-530): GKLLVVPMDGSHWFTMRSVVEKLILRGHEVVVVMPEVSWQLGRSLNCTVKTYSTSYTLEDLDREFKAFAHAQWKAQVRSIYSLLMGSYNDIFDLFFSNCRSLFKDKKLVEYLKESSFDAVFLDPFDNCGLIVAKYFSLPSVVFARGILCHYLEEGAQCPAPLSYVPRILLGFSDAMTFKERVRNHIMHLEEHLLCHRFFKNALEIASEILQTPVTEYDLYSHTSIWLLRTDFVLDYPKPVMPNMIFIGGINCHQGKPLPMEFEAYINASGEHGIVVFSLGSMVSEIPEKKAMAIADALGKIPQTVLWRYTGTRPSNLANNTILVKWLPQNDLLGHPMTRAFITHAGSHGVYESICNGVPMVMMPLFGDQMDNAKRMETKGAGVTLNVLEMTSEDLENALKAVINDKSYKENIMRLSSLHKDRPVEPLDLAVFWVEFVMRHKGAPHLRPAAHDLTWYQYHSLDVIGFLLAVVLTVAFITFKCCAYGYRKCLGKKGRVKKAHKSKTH
Assay: Inhibition of CBG glucuronidation by Compound 1, rUGT1A9
Type: in vitro ADME
Conditions: for CBG detected (CBG loss) / CBG detected, Percent of control / CBG glucuronide formed / CBG glucuronide formed, Percent of control: 4 min
Description: The purpose of this experiment was to determine if Compound 1 can inhibit the glucuronidation of CBG, as both are substrates for the two major isoforms responsible for CBG glucuronidation.
The ability of Compound 1 to inhibit the metabolism of CBG by UGT1A9 and UGT2B7 enzymes was investigated to ascertain the IC50 values for direct inhibition. The incubation conditions (substrate concentration, incubation time and protein concentration) were determined in Part 2 of the protocol such that CBG metabolism remains near initial rate conditions (e.g., 20-30% substrate loss).
Preliminary experiments were conducted in Part I of the protocol, first to establish the HPLC/MS/MS bioanalytical methods for CBG and CBG glucuronide. […] The second set of preliminary experiments (Part 2), as mentioned, were conducted to optimize the incubation conditions as described above. Incubations (at 37° C.) contained Tris-HCl buffer (100 mM, pH 7.7), MgCl2 (10 mM), EDTA (1 mM, pH 7.4) and UDP-glucuronic acid (UDPGA, 10 mM). CBG was added to each incubation in DMSO such that the final percent of DMSO was 1% v/v, or less. Reactions were terminated by the addition of an equal volume of stop reagent, acetonitrile containing an internal standard. The samples were centrifuged (e.g., 920 RCF for 10 minutes at 10° C.), and the supernatant fractions were analyzed by LC-MS/MS to determine the amount of CBG remaining and formation of one metabolite (CBG glucuronide).
To examine its ability to act as a direct inhibitor of the above listed enzymes, Compound 1 was be added to recombinant human UGT enzyme together with CBG. Reactions were initiated with UDPGA and were carried out in duplicate. For all assays, reactions were terminated by the addition of acetonitrile with or without 2% v/v formic acid, including the internal standard.
Authentic metabolite reference standards were used for quantitation of the probe substrate metabolites and as internal standards. Based on the information obtained in the Part 2 experiments, the following table summarizes the experiments performed, assessing the inhibitory effects of Compound 1 was conducted as follows:
The amounts of CBG present at the end of the incubation periods was determined. For inhibition to have occurred, the amounts of CBG present at the end of the incubation period needed to increase, and the amounts of glucuronide formed needed to decrease.

## CCCCCc1cc(O)c(C/C=C(\C)CCC=C(C)C)c(OC)c1 [Compound 1, (E)-2-(3,7-dimethylocta-2,6-dien-1-yl)-3-methoxy-5-pentylphenol]
10 μM CBG + 0.01 μM Compound 1
  CBG detected (CBG loss): 1250 pmol
  CBG detected, Percent of control: 109
  CBG glucuronide formed: 350000 area ratio
  CBG glucuronide formed, Percent of control: 94.4
10 μM CBG + 0.03 μM Compound 1
  CBG detected (CBG loss): 1250 pmol
  CBG detected, Percent of control: 110
  CBG glucuronide formed: 360000 area ratio
  CBG glucuronide formed, Percent of control: 97.1
10 μM CBG + 0.1 μM Compound 1
  CBG detected (CBG loss): 1280 pmol
  CBG detected, Percent of control: 112
  CBG glucuronide formed, Percent of control: 92.0
10 μM CBG + 0.3 μM Compound 1
  CBG detected (CBG loss): 1300 pmol
  CBG detected, Percent of control: 114
  CBG glucuronide formed: 350000 area ratio
  CBG glucuronide formed, Percent of control: 94.4
10 μM CBG + 1 μM Compound 1
  CBG detected (CBG loss): 1210 pmol
  CBG detected, Percent of control: 106
  CBG glucuronide formed, Percent of control: 92.6
10 μM CBG + 3 μM Compound 1
  CBG detected (CBG loss): 1200 pmol
  CBG detected, Percent of control: 105
  CBG glucuronide formed, Percent of control: 93.6
10 μM CBG + 10 μM Compound 1
  CBG detected (CBG loss): 1140 pmol
  CBG detected, Percent of control: 99.8
  CBG glucuronide formed, Percent of control: 92.8
0.01-10 μM Compound 1, CBG disappearance or glucuronide formation
  metabolism of CBG in the presence of Compound 1 (in words): essentially unchanged
